Measurements taken from patent publication US11414418B2, “Compounds useful as immunomodulators” (Bristol-Myers Squibb Company, priority 2018, dated 2022).

Target: PD-1/PD-L1 interaction (PD-1-Ig / PD-L1-His) (Homo sapiens (Human), UniProt Q9NZQ7)
Assay: PD-1/PD-L1 Homogenous Time-Resolved Fluorescence (HTRF) binding assay
Settings: PD-L1-His 10 nM final, PD-1-Ig 20 nM final
From the text: The ability of the compounds of formula (I) to bind to PD-L1 was investigated using a PD-1/PD-L1 Homogenous Time-Resolved Fluorescence (HTRF) binding assay.
1. Homogenous Time-Resolved Fluorescence (HTRF) Binding Assay.
The interaction of PD-1 and PD-L1 can be assessed using soluble, purified preparations of the extracellular domains of the two proteins. The PD-1 and PD-L1 protein extracellular domains were expressed as fusion proteins with detection tags, for PD-1, the tag was the Fc portion of Immunoglobulin (PD-1-Ig) and for PD-L1 it was the 6 histidine motif (PD-L1-His). All binding studies were performed in an HTRF assay buffer consisting of dPBS supplemented with 0.1% […] bovine serum albumin and 0.05% (v/v) Tween-20. For the h/PD-L1-His binding assay, inhibitors were pre-incubated with PD-L1-His (10 nM final) for 15 m in 4 μl of assay buffer, followed by addition of PD-1-Ig (20 nM final) in 1 μl of assay buffer and further incubation for 15 m. HTRF detection was achieved using europium crypate-labeled anti-Ig (1 nM final) and allophycocyanin (APC) labeled anti-His (20 nM final). Antibodies were diluted in HTRF detection buffer and 5 μl was dispensed on top of the binding reaction. The reaction mixture was allowed to equilibrate for 30 minutes and the resulting signal (665 nm/620 nm ratio) was obtained using an EnVision fluorometer. Additional binding assays were established between the human proteins PD-1-Ig/PD-L2-His (20 & 5 nM, respectively) and CD80-His/PD-L1-Ig (100 & 10 nM, respectively).
Recombinant Proteins: Human PD-1 (25-167) with a C-terminal human Fc domain of immunoglobulin G (Ig) epitope tag [hPD-1 (25-167)-3S-IG] and human PD-L1 (18-239) with a C-terminal His epitope tag [hPD-L1 (18-239)-TVMV-His] were expressed in HEK293T cells and purified sequentially by ProteinA affinity chromatography and size exclusion chromatography. Human PD-L2-His and CD80-His was obtained through commercial sources.

PD-1/PD-L1 interaction (PD-1-Ig / PD-L1-His), sequence (Q9NZQ7 other isoform, or with tags, fused parts or gaps): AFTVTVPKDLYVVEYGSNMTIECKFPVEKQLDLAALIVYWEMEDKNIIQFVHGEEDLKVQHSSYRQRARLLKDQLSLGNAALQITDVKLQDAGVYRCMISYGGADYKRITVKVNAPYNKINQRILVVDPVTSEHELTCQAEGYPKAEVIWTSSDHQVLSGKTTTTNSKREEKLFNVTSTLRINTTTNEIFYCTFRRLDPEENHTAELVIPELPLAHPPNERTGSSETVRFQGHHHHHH

SMILES	IC50 [µM]
O=C(CCCN1CC[C@@H](OCc2ccccc2)C1)N1CCCC2(CCCN(C(=O)CCCN3CC[C@@H](OCc4ccccc4)C3)C2)C1 [Example 1001, 1,1′-(2,8-diazaspiro[5.5]undecane-2,8-diyl)bis(4-((R)-3-(benzyloxy)pyrrolidin-1-yl)butan-1-one)]	> 2.5
O=C(CCCN1CC[C@@H](O)C1)N1CCCC2(CCCN(C(=O)CCCN3CC[C@@H](O)C3)C2)C1 [Example 1002, 1,1′-(2,8-diazaspiro[5.5]undecane-2,8-diyl)bis(4-((R)-3-hydroxypyrrolidin-1-yl)butan-1-one)]	0.84
COC(=O)c1cncc(COc2cc(CCC(=O)N3CCCC4(CCCN(C(=O)CCCN5CC[C@@H](OCc6ccccc6)C5)C4)C3)c(Cl)cc2CN[C@@](C)(CO)C(=O)O)c1 (stereo partly drawn) [Example 1005, (2S)-2-((4-(3-(8-(4-((R)-3-(benzyloxy)pyrrolidin-1-yl)butanoyl)-2,8-diazaspiro[5.5]undecan-2-yl)-3-oxopropyl)-5-chloro-2-((5-(methoxycarbonyl)pyridin-3-yl)methoxy)benzyl)amino)-3-hydroxy-2-methylpropanoic acid]	> 10

Results, then the compound that gave them:

IC50 [µM]	SMILES
> 10	C[C@@](CO)(NCc1cc(Cl)c(CCC(=O)N2CCCC3(CCCN(C(=O)CCCN4CC[C@@H](OCc5ccccc5)C4)C3)C2)cc1OCc1cncc(C(N)=O)c1)C(=O)O (stereo partly drawn) [Example 1003, (2S)-2-((4-(3-(8-(4-((R)-3-(benzyloxy)pyrrolidin-1-yl)butanoyl)-2,8-diazaspiro[5.5]undecan-2-yl)-3-oxopropyl)-2-((5-carbamoylpyridin-3-yl)methoxy)-5-chlorobenzyl)amino)-3-hydroxy-2-methylpropanoic acid]
> 10	C[C@@](CO)(NCc1cc(Cl)c(CCC(=O)N2CCCC3(CCCN(C(=O)CCCN4CC[C@@H](OCc5ccccc5)C4)C3)C2)cc1OCc1cncc(C#N)c1)C(=O)O (stereo partly drawn) [Example 1004, (2S)-2-((4-(3-(8-(4-((R)-3-(benzyloxy)pyrrolidin-1-yl)butanoyl)-2,8-diazaspiro[5.5]undecan-2-yl)-3-oxopropyl)-5-chloro-2-((5-cyanopyridin-3-yl)methoxy)benzyl)amino)-3-hydroxy-2-methylpropanoic acid]
